The experiment concerns the target T1, human CGRP receptor (Homo sapiens, UniProt O60894+Q16602).
T1 construct: SK-N-MC cells that endogenously express the human CGRP receptor; endogenous in cells; host or cells: SK-N-MC cells (membrane homogenates)
The experiment is described as follows: Radioligand binding assay, [125I]-CGRP competition on SK-N-MC cell homogenates. Particulars: Binding data, [125I]-CGRP 40 pM, room temperature. As for the experimental part:
Tissue culture. SK-N-MC cells were grown at 37° C. in 5% CO2 as a monolayer in medium consisting of MEM with Earle's salts and L-glutamine (Gibco) supplemented with 10% fetal bovine serum (Gibco).
Radioligand binding assays. Cells were rinsed twice with phosphate-buffered saline (155 mM NaCl, 3.3 mM Na2HPO4, 1.1 mM KH2PO4, pH 7.4), and incubated for 5-10 min. at 4° C. in hypotonic lysis buffer consisting of 10 mM Tris (pH 7.4) and 5 mM EDTA. Cells were transferred from plates to polypropylene tubes (16×100 mm), homogenized and centrifuged at 32,000×g for 30 min. Pellets were resuspended in buffer consisting of 50 mM Tris (pH 7.4) and 1 mM EDTA, homogenized, and centrifuged again at 32,000×g for 30 min. Pellets were resuspended in 100 mM Tris-Cl pH 7.5, 10 mM MgCl2, 0.1% mammalian protease inhibitor cocktail (Sigma) and stored at −80° C. until needed. On the day of an experiment, homogenates were thawed and homogenized again. Binding of [^125I]-CGRP (NEN) was carried out in buffer containing 50 mM Tris-Cl pH 7.5, 5 mM MgCl2, 0.5% BSA. Homogenates (3.5 μg protein/well) were incubated with competitor compounds (solubilized in 100% DMSO at 100× their final assay concentrations) for one hour at room temperature. Then [^125I]-CGRP was added (40 pM final concentration) and the reaction incubated for one additional hour at room temperature. Assays were stopped by addition of cold wash buffer (20 mM Tris-Cl pH 7.5, 0.1% BSA) immediately followed by filtration over glass fiber filters (Whatman GF/B) previously soaked in 0.5% PEI. Non-specific binding was defined with 100 nM CGRP.

`CC(=O)c1ccc(NC(=O)N2CCC(=O)N3[C@@H](C4CCCCC4)C(=O)N(CCc4ccccc4Cl)C[C@H]23)cc1` [Compound 116, (6S,9aS)-8-[2-(2-Chloro-phenyl)-ethyl]-6-cyclohexyl-4,7-dioxo-hexahydro-pyrazino[1,2-a]pyrimidine-1-carboxylic acid (4-acetyl-phenyl)-amide] showed a concentration for half-maximal inhibition (IC50) of 2580 nM.

In turn, `CC(=O)c1ccc(NC(=O)N2CCC(=O)N3[C@@H](C4CCCCC4)C(=O)N(CCc4ccc(F)cc4)C[C@H]23)cc1` [Compound 122, (6S,9aS)-6-Cyclohexyl-8-[2-(4-fluoro-phenyl)-ethyl]-4,7-dioxo-hexahydro-pyrazino[1,2-a]pyrimidine-1-carboxylic acid (4-acetyl-phenyl)-amide] registered a concentration for half-maximal inhibition (IC50) of 890 nM.

The compound `CC(=O)c1ccc(NC(=O)N2CCC(=O)N3[C@@H](C4CCCCC4)C(=O)N(CCc4ccncc4)C[C@H]23)cc1` [Compound 132, (6S,9aS)-6-Cyclohexyl-4,7-dioxo-8-(2-pyridin-4-yl-ethyl)-hexahydro-pyrazino[1,2-a]pyrimidine-1-carboxylic acid (4-acetyl-phenyl)-amide] came in with an IC50 of 8000 nM. This IC50 lies about 9-fold higher than the previous one.

As for `CC(=O)c1ccc(NC(=O)N2CCC(=O)N3[C@@H](C4CCCCC4)C(=O)N(CCc4cccc(Cl)c4)C[C@H]23)cc1` [Compound 135, (6S,9aS)-8-[2-(3-Chloro-phenyl)-ethyl]-6-cyclohexyl-4,7-dioxo-hexahydro-pyrazino[1,2-a]pyrimidine-1-carboxylic acid (4-acetyl-phenyl)-amide], the IC50 turned out to be 7070 nM.

`CC(=O)c1ccc(NC(=O)N2CCC(=O)N3[C@@H](C4CCCCC4)C(=O)N(CCc4cccs4)C[C@H]23)cc1` [Compound 138, (6S,9aS)-6-Cyclohexyl-4,7-dioxo-8-(2-thiophen-2-yl-ethyl)-hexahydro-pyrazino[1,2-a]pyrimidine-1-carboxylic acid (4-acetyl-phenyl)-amide]: the IC50 came out at 87 nM.

Compound `CC(=O)c1ccc(NC(=O)N2CCC(=O)N3[C@@H](C4CCCCC4)C(=O)N(CCc4cccnc4)C[C@H]23)cc1` [Compound 140, (6S,9aS)-6-Cyclohexyl-4,7-dioxo-8-(2-pyridin-3-yl-ethyl)-hexahydro-pyrazino[1,2-a]pyrimidine-1-carboxylic acid (4-acetyl-phenyl)-amide] came in with an IC50 of 2440 nM. This IC50 is about 28-fold higher than that of the compound before.

`CC(=O)c1ccc(OC(=O)N2CCC(=O)N3[C@@H]2CN(CCc2ccccc2)C(=O)[C@@H]3CC2CCCCC2)c(C)c1` [Compound 144, (6S,9aS)-6-Cyclohexylmethyl-4,7-dioxo-8-phenethyl-hexahydro-pyrazino[1,2-a]pyrimidine-1-carboxylic acid 4-acetyl-2-methyl-phenyl ester] came in with an IC50 of 7400 nM.

On to `CC(O)c1ccc(NC(=O)N2CCC(=O)N3[C@@H]2CN(CCc2ccccc2)C(=O)[C@@H]3CC2CCCCC2)cc1` (stereo partly drawn) [Compound 145, (6S,9aS)-6-Cyclohexylmethyl-4,7-dioxo-8-phenethyl-hexahydro-pyrazino[1,2-a]pyrimidine-1-carboxylic acid [4-(1-hydroxy-ethyl)-phenyl]-amide], for which the IC50 amounted to 2730 nM.

Turning to `CC(=O)c1ccc(OC(=O)N2CCC(=O)N3[C@@H]2CN(CCc2ccccc2)C(=O)[C@@H]3CC2CCCCC2)cc1C` [Compound 146, (6S,9aS)-6-Cyclohexylmethyl-4,7-dioxo-8-phenethyl-hexahydro-pyrazino[1,2-a]pyrimidine-1-carboxylic acid 4-acetyl-3-methyl-phenyl ester], the IC50 was 364 nM.

Compound `CC(=O)c1ccc(OC(=O)N2CCC(=O)N3[C@@H](C4CCCCC4)C(=O)N(CCc4ccccc4)C[C@H]23)cc1C` [Compound 148, (6S,9aS)-6-Cyclohexyl-4,7-dioxo-8-phenethyl-hexahydro-pyrazino[1,2-a]pyrimidine-1-carboxylic acid 4-acetyl-3-methyl-phenyl ester] gave an IC50 of 3900 nM.

`CC(=O)c1ccc(OC(=O)N2CCC(=O)N3[C@@H](C4CCCCC4)C(=O)N(CCc4ccccc4)C[C@H]23)cc1` [Compound 149, (6S,9aS)-6-Cyclohexyl-4,7-dioxo-8-phenethyl-hexahydro-pyrazino[1,2-a]pyrimidine-1-carboxylic acid 4-acetyl-phenyl ester] gave an IC50 of 8560 nM.

For the compound `O=C1COc2cc(OC(=O)N3CCC(=O)N4[C@@H](C5CCCCC5)C(=O)N(CCc5ccccc5)C[C@H]34)ccc21` [Compound 150, (6S,9aS)-6-Cyclohexyl-4,7-dioxo-8-phenethyl-hexahydro-pyrazino[1,2-a]pyrimidine-1-carboxylic acid 3-oxo-2,3-dihydro-benzofuran-6-yl ester], the IC50 was 1730 nM. This IC50 lies about 4.9-fold lower than the previous one.

`CC(=O)c1ccc(NC(=O)N2CCC(=O)N3[C@@H](c4ccc(F)c(F)c4)C(=O)N(CCc4cccc(F)c4)C[C@H]23)cc1` [Compound 151, 6-(3,4-Difluoro-phenyl)-8-[2-(3-fluoro-phenyl)-ethyl]-4,7-dioxo-hexahydro-pyrazino [1,2-a]pyrimidine-1-carboxylic acid (4-acetyl-phenyl)-amide] gave an IC50 of 39 nM.

Consider `CC(=O)c1ccc(NC(=O)N2CCC(=O)N3[C@@H](c4cccc(F)c4)C(=O)N(CCc4cccc(F)c4)C[C@H]23)cc1` [Compound 152, (6S,9aS)-6-(3-Fluoro-phenyl)-8-[2-(3-fluoro-phenyl)-ethyl]-4,7-dioxo-hexahydro-pyrazino[1,2-a]pyrimidine-1-carboxylic acid (4-acetyl-phenyl)-amide], for which the IC50 is 159 nM.

In turn, `CC(=O)c1ccc(NC(=O)N2CCC(=O)N3[C@@H](c4ccc(F)cc4F)C(=O)N(CCc4cccc(F)c4)C[C@H]23)cc1` [Compound 153, (6S,9aS)-6-(2,4-Difluoro-phenyl)-8-[2-(3-fluoro-phenyl)-ethyl]-4,7-dioxo-hexahydro-pyrazino[1,2-a]pyrimidine-1-carboxylic acid (4-acetyl-phenyl)-amide] came in with an IC50 of 320 nM.

For `CC(=O)c1ccc(NC(=O)N2CCC(=O)N3[C@@H](c4cccc(F)c4F)C(=O)N(CCc4cccc(F)c4)C[C@H]23)cc1` [Compound 154, (6S,9aS)-6-(2,3-Difluoro-phenyl)-8-[2-(3-fluoro-phenyl)-ethyl]-4,7-dioxo-hexahydro-pyrazino[1,2-a]pyrimidine-1-carboxylic acid (4-acetyl-phenyl)-amide], the IC50 stood at 363 nM.
